# According to ChEMBL document CHEMBL3525920, “CYP4F enzymes are responsible for the elimination of fingolimod (FTY720), a novel treatment of relapsing multiple sclerosis” (Drug Metab Dispos, 2011):
# Columns and labels:
# Liver microsome [1] = test: Drug metabolism in human liver microsomes assessed as total metabolite formation at 1 to 50 uM after 20 mins by HPLC-RA analysis in presence of CYP2C9 inhibitor sulfaphenazole; format: ADME
# Liver microsome [2] = test: Drug metabolism in human liver microsomes assessed as metabolite formation at 50 uM treated 15 mins after antibody addition measured after 20 mins by HPLC-RA analysis in presence of CYP4F2-specific polyclonal antibody; format: ADME
# Cytochrome P450 2D6 = Cytochrome P450 2D6 (Homo sapiens, UniProt P10635); test: Activity at CYP2D6 in human liver microsomes isolated from donors assessed as metabolite formation after 24 mins by HPLC-RA analysis; format: ADME; conditions: 0.4 h
# Cytochrome P450 1A2 = Cytochrome P450 1A2 (Homo sapiens, UniProt P05177); test: Activity at human recombinant CYP1A2 expressed in baculovirus-infected BTI-TN-5B1-4 insect cell microsomes assessed as metabolite formation at 5 to 100 uM after 30 mins by HPLC-RA analysis; format: ADME; conditions: bti-tn-5b1-4, 0.5 h
# Cytochrome P450 2C18 = Cytochrome P450 2C18 (Homo sapiens, UniProt P33260); test: Activity at human recombinant CYP2C18 expressed in baculovirus-infected BTI-TN-5B1-4 insect cell microsomes assessed as metabolite formation at 5 to 100 uM after 30 mins by HPLC-RA analysis; format: ADME; conditions: bti-tn-5b1-4, 0.5 h
# [3] = Activity at CYP4F in human liver microsomes assessed as intrinsic clearance for metabolite formation after 15 mins measured per mg protein by Eadie-Hofstee plot analysis; format: ADME; conditions: 0.25 h
# Liver microsome [4] = test: Drug metabolism in human liver microsomes assessed as total metabolite formation at 1 to 50 uM after 20 mins by HPLC-RA analysis in presence of irreversible CYP3A inhibitor azamulin; format: ADME
# Cytochrome P450 4F12 [5] = biological target: T1, Cytochrome P450 4F12 (Homo sapiens, UniProt Q9HCS2); test: Activity at human recombinant CYP4F12 expressed in baculovirus-infected BTI-TN-5B1-4 insect cell microsomes assessed as metabolite formation at 5 to 100 uM after 30 mins by HPLC-RA analysis; format: ADME; conditions: bti-tn-5b1-4, 0.5 h
# Cytochrome P450 2C9 = Cytochrome P450 2C9 (Homo sapiens, UniProt P11712); test: Activity at CYP2C9 in human liver microsomes isolated from donors assessed as metabolite formation after 24 mins by HPLC-RA analysis; format: ADME; conditions: 0.4 h
# Liver microsome [6] = test: Drug metabolism in human liver microsomes assessed as total metabolite formation at 1 to 50 uM after 20 mins by HPLC-RA analysis in presence of mechanism-based CYP2E1 inhibitor DETC and NADPH; format: ADME
# [7] = Drug metabolism in human liver cytosol assessed as metabolite formation by HPLC-RA analysis; format: ADME, tissue-based
# Cytochrome P450 4F2 [8] = biological target: T2, Cytochrome P450 4F2 (Homo sapiens, UniProt P78329); test: Activity at human recombinant CYP4F2 expressed in baculovirus-infected BTI-TN-5B1-4 insect cell microsomes assessed as metabolite formation at 50 uM by HPLC-RA analysis in presence of anti-CYP4F2; format: ADME; conditions: bti-tn-5b1-4, 50 µM
# T2 sequence (P78329 whole entry): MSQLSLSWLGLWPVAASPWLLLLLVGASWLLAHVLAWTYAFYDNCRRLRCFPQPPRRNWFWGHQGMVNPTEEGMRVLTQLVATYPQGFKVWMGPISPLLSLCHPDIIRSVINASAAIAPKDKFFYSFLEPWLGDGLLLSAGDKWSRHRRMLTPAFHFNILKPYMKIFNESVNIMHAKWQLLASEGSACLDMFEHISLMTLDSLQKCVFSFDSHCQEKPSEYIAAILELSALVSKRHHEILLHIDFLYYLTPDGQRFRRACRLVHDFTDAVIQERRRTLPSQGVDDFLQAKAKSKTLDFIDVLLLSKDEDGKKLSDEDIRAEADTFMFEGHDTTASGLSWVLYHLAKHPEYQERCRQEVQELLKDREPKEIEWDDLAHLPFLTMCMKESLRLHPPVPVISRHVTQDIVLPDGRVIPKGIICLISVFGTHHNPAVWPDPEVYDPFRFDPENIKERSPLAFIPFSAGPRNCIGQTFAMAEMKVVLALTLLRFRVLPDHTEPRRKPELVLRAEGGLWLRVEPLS
# Liver microsome [9] = test: Drug metabolism in human liver microsomes assessed as total metabolite formation at 1 to 50 uM after 20 mins by HPLC-RA analysis in presence of CYP3A4 mechanism-based inhibitor TAO and NADPH; format: ADME
# Liver microsome [10] = test: Drug metabolism in human liver microsomes assessed as total metabolite formation at 1 to 50 uM after 20 mins by HPLC-RA analysis in presence of CYP2C19 inhibitor tranylcypromine; format: ADME
# Cytochrome P450 2C8 = Cytochrome P450 2C8 (Homo sapiens, UniProt P10632); test: Activity at CYP2C8 in human liver microsomes isolated from donors assessed as metabolite formation after 24 mins by HPLC-RA analysis; format: ADME; conditions: 0.4 h
# Cytochrome P450 1A1 = Cytochrome P450 1A1 (Homo sapiens, UniProt P04798); test: Activity at human recombinant CYP1A1 expressed in baculovirus-infected BTI-TN-5B1-4 insect cell microsomes assessed as metabolite formation at 5 to 100 uM after 30 mins by HPLC-RA analysis; format: ADME; conditions: bti-tn-5b1-4, 0.5 h
# Cytochrome P450 2E1 = Cytochrome P450 2E1 (Homo sapiens, UniProt P05181); test: Activity at human recombinant CYP2E1 expressed in baculovirus-infected BTI-TN-5B1-4 insect cell microsomes assessed as metabolite formation at 5 to 100 uM after 30 mins by HPLC-RA analysis; format: ADME; conditions: bti-tn-5b1-4, 0.5 h
# Cytochrome P450 3A7 = Cytochrome P450 3A7 (Homo sapiens, UniProt P24462); test: Activity at human recombinant CYP3A7 expressed in baculovirus-infected BTI-TN-5B1-4 insect cell microsomes assessed as metabolite formation at 5 to 100 uM after 30 mins by HPLC-RA analysis; format: ADME; conditions: bti-tn-5b1-4, 0.5 h
# Liver microsome [11] = test: Drug metabolism in human liver microsomes assessed as total metabolite formation at 1 to 50 uM after 20 mins by HPLC-RA analysis in presence of CYP3A4 inhibitor ketoconazole; format: ADME
# [12] = Activity at FMO in human liver microsomes isolated from donors assessed as metabolite formation after 24 mins by HPLC-RA analysis; format: ADME; conditions: 0.4 h
# Cytochrome P450 3A4 = Cytochrome P450 3A4 (Homo sapiens, UniProt P08684); test: Activity at human recombinant CYP3A4 expressed in baculovirus-infected BTI-TN-5B1-4 insect cell microsomes assessed as metabolite formation at 5 to 100 uM after 30 mins by HPLC-RA analysis; format: ADME; conditions: bti-tn-5b1-4, 0.5 h
# Cytochrome P450 4F2 [13] = biological target: T2, Cytochrome P450 4F2; test: Activity at human recombinant CYP4F2 expressed in baculovirus-infected BTI-TN-5B1-4 insect cell microsomes at 10 uM by HPLC-RA analysis in presence of CYP4F2 and CYP4F12 inhibitor ketoconazole; format: ADME; conditions: bti-tn-5b1-4, 10 µM
# Cytochrome P450 4F3 = Cytochrome P450 4F3 (Homo sapiens, UniProt Q08477); test: Activity at human recombinant CYP4F3A expressed in baculovirus-infected BTI-TN-5B1-4 insect cell microsomes assessed as metabolite formation at 5 to 100 µM after 30 mins by HPLC-RA analysis; format: ADME; conditions: bti-tn-5b1-4, 0.5 h
# Cytochrome P450 4F12 [14] = biological target: T1, Cytochrome P450 4F12; test: Activity at human recombinant CYP4F12 expressed in baculovirus-infected BTI-TN-5B1-4 insect cell microsomes at 10 uM by HPLC-RA analysis in presence of CYP4F2 and CYP4F12 inhibitor ketoconazole; format: ADME; conditions: bti-tn-5b1-4, 10 µM
# T1 sequence (Q9HCS2 whole entry): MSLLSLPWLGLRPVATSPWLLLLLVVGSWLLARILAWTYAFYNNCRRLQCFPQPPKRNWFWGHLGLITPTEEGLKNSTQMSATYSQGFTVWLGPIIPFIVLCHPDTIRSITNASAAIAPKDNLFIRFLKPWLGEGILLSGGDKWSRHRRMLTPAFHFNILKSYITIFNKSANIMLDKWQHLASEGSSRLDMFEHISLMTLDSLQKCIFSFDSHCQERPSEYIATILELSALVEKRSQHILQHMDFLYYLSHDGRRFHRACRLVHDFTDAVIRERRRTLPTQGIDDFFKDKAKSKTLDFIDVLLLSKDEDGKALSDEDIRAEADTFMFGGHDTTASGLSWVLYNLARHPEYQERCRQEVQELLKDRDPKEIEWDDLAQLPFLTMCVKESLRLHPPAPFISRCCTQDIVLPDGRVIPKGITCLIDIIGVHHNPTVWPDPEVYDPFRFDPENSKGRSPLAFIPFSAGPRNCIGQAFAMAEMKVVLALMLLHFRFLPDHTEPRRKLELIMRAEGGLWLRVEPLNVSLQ
# Sequence of Cytochrome P450 2C18 (P33260 whole entry): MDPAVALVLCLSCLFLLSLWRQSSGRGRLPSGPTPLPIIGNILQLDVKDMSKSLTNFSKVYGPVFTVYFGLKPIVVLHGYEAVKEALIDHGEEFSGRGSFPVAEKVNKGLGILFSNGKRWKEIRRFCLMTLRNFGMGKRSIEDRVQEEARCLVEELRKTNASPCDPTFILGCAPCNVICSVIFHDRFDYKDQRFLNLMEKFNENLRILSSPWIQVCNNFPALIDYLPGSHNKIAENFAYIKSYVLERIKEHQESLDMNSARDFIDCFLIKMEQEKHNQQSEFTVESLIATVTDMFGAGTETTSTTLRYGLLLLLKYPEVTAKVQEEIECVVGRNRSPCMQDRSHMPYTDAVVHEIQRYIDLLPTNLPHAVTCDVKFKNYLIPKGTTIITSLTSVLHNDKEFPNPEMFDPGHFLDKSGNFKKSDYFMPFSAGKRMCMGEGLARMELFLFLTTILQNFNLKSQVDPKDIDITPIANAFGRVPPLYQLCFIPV
# Sequence of Cytochrome P450 2C9 (P11712 whole entry): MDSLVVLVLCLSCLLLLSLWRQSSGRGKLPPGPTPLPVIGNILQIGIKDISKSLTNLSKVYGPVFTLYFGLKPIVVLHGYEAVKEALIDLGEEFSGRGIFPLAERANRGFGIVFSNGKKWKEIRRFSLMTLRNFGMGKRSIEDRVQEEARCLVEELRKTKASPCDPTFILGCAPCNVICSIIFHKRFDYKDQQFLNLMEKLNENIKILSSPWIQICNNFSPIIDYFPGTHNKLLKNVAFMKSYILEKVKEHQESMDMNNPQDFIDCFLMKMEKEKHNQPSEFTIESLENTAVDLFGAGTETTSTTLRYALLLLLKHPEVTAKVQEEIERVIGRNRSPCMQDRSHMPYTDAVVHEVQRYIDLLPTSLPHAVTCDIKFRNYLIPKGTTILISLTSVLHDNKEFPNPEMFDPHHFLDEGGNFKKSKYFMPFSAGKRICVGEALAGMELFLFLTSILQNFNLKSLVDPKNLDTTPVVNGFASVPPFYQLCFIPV
# Sequence of Cytochrome P450 2D6 (P10635 whole entry): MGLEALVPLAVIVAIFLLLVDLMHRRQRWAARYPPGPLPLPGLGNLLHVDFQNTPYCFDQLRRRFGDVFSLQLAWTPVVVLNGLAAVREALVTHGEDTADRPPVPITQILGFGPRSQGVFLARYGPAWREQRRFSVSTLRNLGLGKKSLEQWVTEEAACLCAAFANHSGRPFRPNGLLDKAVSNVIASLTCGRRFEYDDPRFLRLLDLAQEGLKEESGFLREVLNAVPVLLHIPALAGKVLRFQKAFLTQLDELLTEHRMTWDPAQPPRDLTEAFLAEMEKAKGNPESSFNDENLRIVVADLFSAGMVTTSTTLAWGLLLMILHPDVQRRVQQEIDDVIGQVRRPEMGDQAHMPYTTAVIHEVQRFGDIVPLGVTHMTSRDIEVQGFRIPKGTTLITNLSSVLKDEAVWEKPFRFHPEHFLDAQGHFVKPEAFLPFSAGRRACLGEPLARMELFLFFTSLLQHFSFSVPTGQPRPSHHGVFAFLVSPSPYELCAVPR
# Sequence of Cytochrome P450 4F3 (Q08477 whole entry): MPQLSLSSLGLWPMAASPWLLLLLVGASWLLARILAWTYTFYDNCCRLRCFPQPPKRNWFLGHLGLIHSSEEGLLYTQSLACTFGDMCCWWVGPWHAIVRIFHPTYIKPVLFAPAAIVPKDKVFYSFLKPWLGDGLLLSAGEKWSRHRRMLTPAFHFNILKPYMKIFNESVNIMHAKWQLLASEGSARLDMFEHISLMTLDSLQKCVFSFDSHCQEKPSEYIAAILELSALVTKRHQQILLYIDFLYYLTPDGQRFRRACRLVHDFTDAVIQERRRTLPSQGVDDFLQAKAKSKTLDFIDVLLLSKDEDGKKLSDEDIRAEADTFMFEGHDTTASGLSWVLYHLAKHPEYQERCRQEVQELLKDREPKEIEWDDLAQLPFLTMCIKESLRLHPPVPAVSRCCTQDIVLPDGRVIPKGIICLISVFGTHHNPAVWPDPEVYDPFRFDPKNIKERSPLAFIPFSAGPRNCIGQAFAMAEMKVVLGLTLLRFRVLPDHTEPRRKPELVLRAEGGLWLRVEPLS
# Sequence of Cytochrome P450 3A7 (P24462 whole entry): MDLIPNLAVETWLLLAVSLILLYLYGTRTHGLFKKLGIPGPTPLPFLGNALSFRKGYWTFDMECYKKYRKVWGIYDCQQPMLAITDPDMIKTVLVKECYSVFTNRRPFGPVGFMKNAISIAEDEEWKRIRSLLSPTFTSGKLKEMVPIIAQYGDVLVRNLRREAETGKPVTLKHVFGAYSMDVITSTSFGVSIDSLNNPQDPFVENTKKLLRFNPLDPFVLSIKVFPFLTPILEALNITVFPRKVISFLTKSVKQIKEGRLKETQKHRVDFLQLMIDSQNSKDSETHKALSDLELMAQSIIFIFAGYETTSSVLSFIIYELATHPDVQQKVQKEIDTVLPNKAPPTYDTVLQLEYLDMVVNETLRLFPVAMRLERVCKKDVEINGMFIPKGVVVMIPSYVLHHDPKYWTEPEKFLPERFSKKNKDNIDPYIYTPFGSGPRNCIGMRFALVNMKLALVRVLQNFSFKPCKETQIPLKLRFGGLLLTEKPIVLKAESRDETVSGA
# Sequence of Cytochrome P450 2C8 (P10632 whole entry): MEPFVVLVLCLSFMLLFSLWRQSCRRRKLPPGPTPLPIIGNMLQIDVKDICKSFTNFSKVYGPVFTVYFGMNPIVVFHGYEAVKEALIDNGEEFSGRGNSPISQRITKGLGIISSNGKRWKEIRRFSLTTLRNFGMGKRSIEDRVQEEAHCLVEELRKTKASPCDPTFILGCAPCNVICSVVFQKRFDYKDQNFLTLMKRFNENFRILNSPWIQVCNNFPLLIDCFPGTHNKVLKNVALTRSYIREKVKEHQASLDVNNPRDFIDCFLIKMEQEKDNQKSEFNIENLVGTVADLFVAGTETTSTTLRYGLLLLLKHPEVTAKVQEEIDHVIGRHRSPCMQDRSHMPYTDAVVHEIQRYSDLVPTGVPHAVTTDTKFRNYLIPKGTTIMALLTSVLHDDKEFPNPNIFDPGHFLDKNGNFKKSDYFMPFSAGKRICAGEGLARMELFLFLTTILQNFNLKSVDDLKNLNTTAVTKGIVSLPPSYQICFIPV
# Sequence of Cytochrome P450 2E1 (P05181 whole entry): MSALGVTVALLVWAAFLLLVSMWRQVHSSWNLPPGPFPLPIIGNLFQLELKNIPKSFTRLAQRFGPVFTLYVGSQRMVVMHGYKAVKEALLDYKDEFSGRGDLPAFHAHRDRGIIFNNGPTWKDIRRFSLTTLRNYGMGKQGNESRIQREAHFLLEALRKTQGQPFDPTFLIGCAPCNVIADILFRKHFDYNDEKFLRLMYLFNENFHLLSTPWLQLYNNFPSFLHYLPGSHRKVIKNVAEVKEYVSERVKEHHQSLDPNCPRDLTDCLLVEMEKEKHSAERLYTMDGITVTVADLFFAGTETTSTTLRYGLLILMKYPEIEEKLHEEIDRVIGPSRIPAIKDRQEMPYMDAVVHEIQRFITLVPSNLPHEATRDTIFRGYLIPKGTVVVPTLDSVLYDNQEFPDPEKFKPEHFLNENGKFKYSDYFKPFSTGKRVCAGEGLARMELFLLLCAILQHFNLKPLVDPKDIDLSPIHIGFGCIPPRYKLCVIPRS
# Sequence of Cytochrome P450 3A4 (P08684 whole entry): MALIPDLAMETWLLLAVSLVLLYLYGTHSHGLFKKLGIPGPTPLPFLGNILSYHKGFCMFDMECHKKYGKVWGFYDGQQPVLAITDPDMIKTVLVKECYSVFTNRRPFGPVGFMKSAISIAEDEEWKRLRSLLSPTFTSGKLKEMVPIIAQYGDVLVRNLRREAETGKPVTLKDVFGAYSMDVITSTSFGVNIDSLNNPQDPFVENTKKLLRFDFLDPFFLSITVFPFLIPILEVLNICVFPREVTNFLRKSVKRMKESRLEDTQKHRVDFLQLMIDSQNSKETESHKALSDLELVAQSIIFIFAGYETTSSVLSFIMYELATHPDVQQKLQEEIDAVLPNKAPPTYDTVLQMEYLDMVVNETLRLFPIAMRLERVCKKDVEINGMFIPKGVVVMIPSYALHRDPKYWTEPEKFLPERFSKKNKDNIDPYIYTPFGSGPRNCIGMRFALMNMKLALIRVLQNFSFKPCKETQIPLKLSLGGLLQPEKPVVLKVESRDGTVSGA
smiles,measurement,setting,value
CCCCCCCCc1ccc(CC[14C](N)(CO)CO)cc1.Cl,Drug metabolism,Liver microsome [1],metabolite_detected
same,Drug metabolism,Liver microsome [2],metabolite_not_detected
same,Drug metabolism,Cytochrome P450 2D6,metabolite_not_detected
same,Drug metabolism,Cytochrome P450 1A2,metabolite_not_detected
same,Drug metabolism,Cytochrome P450 2C18,metabolite_not_detected
same,CLint,[3],10 µL/min/mg
same,Drug metabolism,Liver microsome [4],metabolite_not_detected
same,Drug metabolism,Cytochrome P450 4F12 [5],metabolite_detected
same,Drug metabolism,Cytochrome P450 2C9,metabolite_not_detected
same,Drug metabolism,Liver microsome [6],metabolite_detected
same,Drug metabolism,[7],metabolite_not_detected
same,Drug metabolism,Cytochrome P450 4F2 [8],metabolite_not_detected
same,Drug metabolism,Liver microsome [9],metabolite_detected
same,Drug metabolism,Liver microsome [10],metabolite_detected
same,Drug metabolism,Cytochrome P450 2C8,metabolite_not_detected
same,Drug metabolism,Cytochrome P450 1A1,metabolite_not_detected
same,Drug metabolism,Cytochrome P450 2E1,metabolite_detected
same,Drug metabolism,Cytochrome P450 3A7,metabolite_not_detected
same,Drug metabolism,Liver microsome [11],metabolite_not_detected
same,Drug metabolism,[12],metabolite_not_detected
same,Drug metabolism,Cytochrome P450 3A4,metabolite_detected
same,Drug metabolism,Cytochrome P450 4F2 [13],metabolite_not_detected
same,Drug metabolism,Cytochrome P450 4F3,metabolite_not_detected
same,Drug metabolism,Cytochrome P450 4F12 [14],metabolite_not_detected
